Assay results from patent publication US20230302036A1, “COMPOSITIONS FOR TREATMENT OF SPINAL MUSCULAR ATROPHY” (priority 2020, published 2023).
Oligonucleotides are written 5' to 3', each unit as a sugar letter and its base; * is a phosphorothioate linkage, no mark a phosphodiester; rarer units and linkages stand in square brackets, end groups in braces. Plain capitals give the bases only. e = 2'-O-(2-methoxyethyl) (MOE); [5mC] = 5-methylcytosine

What was measured:
SMN2 pre-mRNA = assay: Transcriptional activation by RT-qPCR of SMN2 pre-mRNA in HEK293T cells; format: cell-based, human; conditions: HDAC inhibitor alone
[1] = tested on: endogenous SMN2 E7 alternative splicing; assay: SMN2 E7 alternative splicing by radioactive RT-PCR in HEK293T cells; format: cell-based, human; conditions: for effect of the drug on ASO1's effect on E7 inclusion: HEK293T transfected with 25 nM ASO1, increasing doses of TSA 24 hr; for effect of the drug on ASO1's effect on E7 inclusion / effect on SMN2 E7 inclusion, agent alone: 25 µM 5-AZA 48 hr; for effect on SMN2 E7 inclusion, agent alone: 25 nM ASO, 3 µM TSA 24 hr, 3 µM CPT
Experimental: Alternative splicing was analyzed by radioactive RT-PCR followed by native polyacrylamide gel electrophoresis and autoradiography. Bars display means ± SD of percentage of the radioactivity in the FL band over the sum of radioactivity measurements in the FL and ΔE7 bands of at least three independent transfection experiments. A two-tailed Student’s t test was used to determine the significance between events. (FIG. 1A) HEK293T cells were co-transfected with the SMN2 minigene and expression vectors for WT^res and hC4 Pol II, followed by addition of α-amanitin. (FIG. 1B) Effect of camptothecin (CPT) on SMN2 E7 alternative splicing. HEK293T cells were incubated for at least 6 hours with 3 µM CPT. Combined effects on endogenous SMN2 E7 alternative splicing of transfection with 25 nM ASO1 and treatment with 3 µM TSA for 24 hr (FIG. 1C), 10 mM VPA for 24 hr (FIG. 1D), or 25 µM 5-AZA for 48 hr (FIG. 1E). Combined effects on HEK293T endogenous SMN2 E7 alternative splicing of transfection with 25 nM each of si-hnRNPA1 and si-hnRNPA2, and treatment with 3 µM TSA for 24 hr (FIG. 1F) or 10 mM VPA for 24 hr (FIG. 1G). […]
HEK293T, HeLa, and SMA type I homozygous and carrier fibroblasts 3813 and 3814 (Coriell Cell Repositories, Camden, New Jersey, United States) were grown in Dulbecco’s modified Eagle’s medium (DMEM) containing 4.5 g of glucose and 10% fetal bovine serum (Gibco) at 37° C. Cells were plated at a density of 2×10^5 cells per well in 12-well plates 24 hr before transfection. siRNA (25 nM), plasmid (500 ng), or ASO (25 nM) transfections were performed 24 hr after cells were plated, using 3 µl of Lipofectamine 2000 (Thermo Fisher Scientific) per well in 12-well plates. 24-48 h later, cells were treated with Trichostatin A (Sigma, T8552), Valproic Acid (Sigma, P4543), 5-Azacytidine (Sigma, A2385) or vehicle for the indicated time, and harvested for downstream procedures. […]

[2] = tested on: endogenous SMN2 E7 alternative splicing in HeLa cells; assay: SMN2 E7 alternative splicing by radioactive RT-PCR in HeLa cells; format: cell-based, human; conditions: 10 nM ASO1 and 3 µM TSA 24 hr
Experimental: (§1) Combined effects on endogenous SMN2 E7 alternative splicing in transfected (FIG. 5A) HEK293T cells with 25 nM ASO1 and increasing doses of TSA for 24 hr, (FIG. 5B) HeLa cells with 10 nM ASO1 and 3 µM TSA for 24 hr., and (FIG. 5C) SMA patient fibroblasts (3813) with 10 nM ASO1 and 3 µM TSA for 24 hr. Bars display means ± SD of percentage of the radioactivity in the FL band over the sum of radioactivity measurements in the FL and ΔE7 bands of at least three independent transfection experiments. (FIG. 5D and FIG. 5E) Transcriptional activation was assessed by RT-qPCR. (FIG. 5F) HEK293T cells with 3 nM ASO1 and 10 mM VPA for 24 hr. Bars indicate mean transcriptional activation ± SD ratios between precursors of SMN2 and GAPDH as the control gene. Statistical significance was analyzed by two-tailed Student’s t-tests. P < 0.05 was considered statistically significant.
(§2) HEK293T, HeLa, and SMA type I homozygous and carrier fibroblasts 3813 and 3814 (Coriell Cell Repositories, Camden, New Jersey, United States) were grown in Dulbecco’s modified Eagle’s medium (DMEM) containing 4.5 g of glucose and 10% fetal bovine serum (Gibco) at 37° C. […]

[3] = tested on: endogenous SMN2 E7 alternative splicing in SMA patient fibroblasts; assay: SMN2 E7 alternative splicing by radioactive RT-PCR in SMA patient fibroblasts (3813); format: cell-based, human; conditions: 10 nM ASO1 and 3 µM TSA 24 hr
Experimental: as §1, §2

[4] = tested on: H3K9me2 along the SMN2 gene; assay: ChIP-qPCR of H3K9me2 distribution along the SMN2 gene in HEK293T cells; format: cell-based, human; conditions: HEK293T; ASO transfection or 10 mM VPA
Experimental: (§3) H3K9me2 (FIG. 2B), total RNAPII (FIG. 2C), P-Ser5 RNAPII (FIG. 2D), and P-Ser2 RNAPII (FIG. 2E) distribution along the SMN2 gene, assessed by ChIP-qPCR in HEK293T cells transfected with the scramble oligo (CTRL) or ASO1 and treated with 10 mM VPA. Four independent immunoprecipitation replicates were conducted per experiment. Data are represented as mean ± S.D. (n = 4, *p < 0.05, two-tailed Student’s t test).
(§4) Total distribution of H3K9me2 (FIG. 3C), total RNAPII (FIG. 3D), P-Ser5 RNAPII (FIG. 3E), and P-Ser2 RNAPII (FIG. 3F) along the SMN2 gene is shown. This distribution was assessed by ChIP-qPCR in HEK293T cells transfected with the scramble oligo (CTRL) or ASO2 and treated with 10 mM VPA. Four independent immunoprecipitation replicates were conducted per experiment. Data are represented as mean ± S.D. (n = 4, *p < 0.05, two-tailed Student’s t test).
Approximately 2×10^6 HEK293T cells per sample were treated for 10 min in 1% (v/v) formaldehyde at room temperature to crosslink protein-DNA complexes. Crosslinking was stopped with glycine at a final concentration of 125 mM. Cells were washed twice with cold PBS and swelled on ice for 10 min in 25 mM HEPES pH 8, 1.5 mM MgCl2, 10 mM KCl, 0.1% NP-40, 1 mM DTT and 1× protease inhibitor cocktail set III (Calbiochem). Following Dounce homogenization, the nuclei were collected and resuspended in 1 ml sonication buffer (50 mM HEPES pH 8, 140 mM NaCl, 1 mM EDTA, 0.1% sodium deoxycholate, 0.1% SDS and 1× protease inhibitor cocktail). DNA was sonicated in an ultrasonic bath (Bioruptor Diagenode) to an average length of 200-500 bp. After addition of 1% (v/v) Triton X-100, samples were centrifuged at 15,000 ×g. Supernatants were immunoprecipitated O/N with 40 µl of pre-coated anti-IgG magnetic beads (Dynabeads M-280, Invitrogen) previously incubated with the antibody of interest for 6 hr at 4° C. The antibodies used were: rabbit anti-H3 (2 µg, Abcam ab1791), mouse anti-H3K9me2 (4 µg, Abcam ab1220), rabbit anti H3K9me3 (4 µg, Abcam ab8898), rabbit anti H3K9Ac (2 µg, Abcam ab4441), rabbit anti Rpb1 NTD (2 µg, Cell Signaling, D8L4Y), rabbit Phospho-Rpb1 CTD Ser2 (2 µg, Cell Signaling, E1Z3G), rabbit Phospho-Rpb1 CTD Ser5 (2 µg, Cell Signaling, D9N5I). Control immunoprecipitations were performed with rabbit IgG (1 µg, Abcam ab171870). […] Immunoprecipitated DNA (1.5 µl) and serial dilutions of the 10% input DNA (1:4, 1:20, 1: 100, and 1:500) were analyzed by SYBR-Green real-time qPCR.

[5] = tested on: H3K9me2 along SERF1A, MYOD, GAPDH; assay: Specificity control ChIP-qPCR of H3K9me2 on SERF1A, MYOD and GAPDH in HEK293T cells; format: cell-based, human
Experimental: FIGS. 6A-6D show antisense oligonucleotides and their effects on chromatin. […] Uppercase, exonic nucleotide sequence. Lowercase, intronic sequences. Upstream highlight, binding site for ASO1. Downstream highlight, binding site for ASO2. Levels of H3K9me2 deposition along small EDRK-rich factor 1A (SERF1A, upstream of SMN2) (FIG. 6B), Myoblast Determination Protein (MYOD) (FIG. 6C), and Glyceraldehyde 3-phosphate dehydrogenase (GAPDH) (FIG. 6D), were assessed by ChIP-qPCR in HEK293T cells. Data represented as mean ± S.D. (n = 4, *p < 0.05, two-tailed Student’s t test).
Approximately 2×10^6 HEK293T cells per sample were treated for 10 min in 1% (v/v) formaldehyde at room temperature to crosslink protein-DNA complexes. Crosslinking was stopped with glycine at a final concentration of 125 mM. Cells were washed twice with cold PBS and swelled on ice for 10 min in 25 mM HEPES pH 8, 1.5 mM MgCl2, 10 mM KCl, 0.1% NP-40, 1 mM DTT and 1× protease inhibitor cocktail set III (Calbiochem). Following Dounce homogenization, the nuclei were collected and resuspended in 1 ml sonication buffer (50 mM HEPES pH 8, 140 mM NaCl, 1 mM EDTA, 0.1% sodium deoxycholate, 0.1% SDS and 1× protease inhibitor cocktail). […] Immunoprecipitated DNA (1.5 µl) and serial dilutions of the 10% input DNA (1:4, 1:20, 1: 100, and 1:500) were analyzed by SYBR-Green real-time qPCR.

[6] = tested on: RNAPII (total, P-Ser5, P-Ser2) along the SMN2 gene; assay: ChIP-qPCR of RNAPII distribution along the SMN2 gene in HEK293T cells; format: cell-based, human; conditions: ASO transfection vs scramble
Experimental: as §3, §4
Approximately 2×10^6 HEK293T cells per sample were treated for 10 min in 1% (v/v) formaldehyde at room temperature to crosslink protein-DNA complexes. Crosslinking was stopped with glycine at a final concentration of 125 mM. Cells were washed twice with cold PBS and swelled on ice for 10 min in 25 mM HEPES pH 8, 1.5 mM MgCl2, 10 mM KCl, 0.1% NP-40, 1 mM DTT and 1× protease inhibitor cocktail set III (Calbiochem). Following Dounce homogenization, the nuclei were collected and resuspended in 1 ml sonication buffer (50 mM HEPES pH 8, 140 mM NaCl, 1 mM EDTA, 0.1% sodium deoxycholate, 0.1% SDS and 1× protease inhibitor cocktail). DNA was sonicated in an ultrasonic bath (Bioruptor Diagenode) to an average length of 200-500 bp. After addition of 1% (v/v) Triton X-100, samples were centrifuged at 15,000 ×g. Supernatants were immunoprecipitated O/N with 40 µl of pre-coated anti-IgG magnetic beads (Dynabeads M-280, Invitrogen) previously incubated with the antibody of interest for 6 hr at 4° C. The antibodies used were: rabbit anti-H3 (2 µg, Abcam ab1791), mouse anti-H3K9me2 (4 µg, Abcam ab1220), rabbit anti H3K9me3 (4 µg, Abcam ab8898), rabbit anti H3K9Ac (2 µg, Abcam ab4441), rabbit anti Rpb1 NTD (2 µg, Cell Signaling, D8L4Y), rabbit Phospho-Rpb1 CTD Ser2 (2 µg, Cell Signaling, E1Z3G), rabbit Phospho-Rpb1 CTD Ser5 (2 µg, Cell Signaling, D9N5I). Control immunoprecipitations were performed with rabbit IgG (1 µg, Abcam ab171870). Beads were washed sequentially for 5 min each in Low-salt (20 mM Tris-HCl pH 8, 150 mM NaCl, 2 mM EDTA, 1% Triton X-100, 0.1% SDS), High-Salt (20 mM Tris-HCl pH 8, 500 mM NaCl, 2 mM EDTA, 1% Triton X-100, 0.1% SDS) and LiCl buffer (10 mM Tris pH 8.0, 1 mM EDTA, 250 mM LiCl, 1% NP-40, 1% Na-deoxycholate) for 5 min at 4° C. and then twice in TE 1x for 2 min at room temperature. Beads were eluted in 1% SDS and 100 mM NaHCO3 buffer for 15 min at 65° C. and crosslinking was reversed for 6 hr after addition of NaCl to a final concentration of 200 mM. Chromatin was precipitated with ethanol overnight, treated with 20 µg proteinase K, and purified by phenol-chloroform extraction. Immunoprecipitated DNA (1.5 µl) and serial dilutions of the 10% input DNA (1:4, 1:20, 1: 100, and 1:500) were analyzed by SYBR-Green real-time qPCR.

SMN2 E7 = conditions: saturating doses; cited from earlier work

CC(/C=C/C(=O)NO)=C\[C@@H](C)C(=O)c1ccc(N(C)C)cc1 [TSA, trichostatin A]
levels of SMN2 pre-mRNA (promoter-proximal amplicon) (SMN2 pre-mRNA): increased the levels of SMN2 pre-mRNA
effect of the drug on ASO1's effect on E7 inclusion [1]: dose-dependent
effect on SMN2 E7 inclusion, agent alone ([1]; HEK293T): less potent than ASO1 in upregulating E7 inclusion
effect of hnRNPA1/A2 depletion in promoting E7 inclusion upon HDAC inhibitor treatment ([1]; HEK293T, 25 nM each si-hnRNPA1 and si-hnRNPA2, no ASO1, 3 µM TSA or 10 mM VPA 24 hr): stronger
cooperative effect of TSA with ASO1 on E7 inclusion [2]: reproducible
cooperative effect of TSA with ASO1 on E7 inclusion [3]: reproducible

Nc1ncn([C@@H]2O[C@H](CO)[C@@H](O)[C@H]2O)c(=O)n1 [5-AZA, 5-aza cytidine]
effect of the drug on ASO1's effect on E7 inclusion [1]: enhanced the effects of ASO1 as effectively as the HDAC inhibitors
effect on SMN2 E7 inclusion, agent alone ([1]; HEK293T): no effect per se on E7 inclusion

ASO2: 5′-AAAGTATGTTTCTTCCACAC-3′ 2′-O-methoxyethyl phosphorothioate oligonucleotide; target in SMN2 intron 7 downstream of the ASO1 site (antisense eA*eA*eA*eG*eT*eA*eT*eG*eT*eT*eT*e[5mC]*eT*eT*e[5mC]*e[5mC]*eA*e[5mC]*eA*e[5mC])
H3K9me2 marks along the SMN2 gene [4]: promoted H3K9 methylation
inhibition of SMN2 E7 inclusion, ASO2 combined with CPT ([1]; HEK293T, 25 nM ASO2 in combination with 3 µM CPT 24 hr): stronger
effect on SMN2 E7 inclusion, agent alone ([1]; HEK293T): inhibited SMN2 E7 inclusion as efficiently as the elongation inhibitor CPT
H3K9 dimethylation in control genes (same TAD: SERF1A; outside TAD: MYOD, GAPDH) [5]: neither ASO1 nor ASO2 promoted H3K9 dimethylation
P-Ser2 RNAPII density [6]: higher
P-Ser5 RNAPII density [6]: higher
total RNAPII density [6]: higher

CC[C@@]1(O)C(=O)OCc2c1cc1n(c2=O)Cc2cc3ccccc3nc2-1 [CPT, camptothecin]
effect on SMN2 E7 inclusion, agent alone ([1]; HEK293T): promoted E7 skipping

nusinersen: TCACTTTCATAATGCTGG; 2′-O-(2-methoxyethyl) phosphorothioate-modified antisense-oligonucleotide drug targeting a splicing silencer in SMN2 intron 7 (all 2'-MOE, all phosphorothioate, methylation of C not given here)
inclusion of SMN2 E7 (SMN2 E7): nearly full inclusion of SMN2 E7
